{"source": "paper PMC12032302", "about": "“A20 attenuates oxidized self-DNA-mediated inflammation in acute kidney injury” (Signal Transduction and Targeted Therapy, 2025)", "key": {"AKI mice": {"system": "AKI mice", "test": "serum creatinine of AKI mice", "assay_type": "in vivo, mouse", "conditions": "Cis-treated mice; A20-derived peptide 15 mg/kg i.p., pretreated; n = 5", "description": "LPS (Sigma, Cat#L2630) was dissolved in PBS to 2.5 mg/mL for one-time intraperitoneal 25 mg/kg injection; deoxyribonuclease I (DNase I, Sigma, Cat#SLBV1446) was dissolved in PBS to 1 mg/mL and injected intraperitoneally at a dose of 10 mg/kg at 4 h before cisplatin or AA I injection and every 24 h after injection. Disulfiram (MedChemExpress, CAS:97-77-8) was diluted in corn oil to 12.5 mg/mL and injected 50 mg/kg intraperitoneally every 24 h after cisplatin or AA I administration. Cu(II) (Sigma, Cat#344419) was dissolved in PBS to 30 µg/mL and administered intraperitoneally 6 h before disulfiram at a dose of 0.15 mg/kg; TNF-α (Peprotech, Cat#315-01 A) was dissolved in PBS to 10 µg/mL and injected at 100 µg/kg once through the caudal vein 24 h before cisplatin injection. […] MCC950 (MedChem Express, CAS:256373-96-3) was dissolved in PBS to 5 mg/mL and injected intraperitoneally at a dose of 50 mg/kg 12 h before cisplatin or AA I injection and every 12 h after injection; berberine (APExBIO, Cat#N1368) was dissolved in PBS to 5 mg/mL and 5 mg/kg injected intraperitoneally at 36, 24 and 12 h before cisplatin; […] To supervise the effects of various treatments on survival time and rate, the mice were observed, and survival curves were generated. To investigate the specific mechanisms, whole blood was retrieved from the orbit, serum was separated through centrifugation on the 4th day, and the mice were then sacrificed by cervical dislocation. Mice were randomly assigned in experiments, while there was no blinding during the animal experiments. Renal function was evaluated based on serum creatinine level and histological features. Serum creatinine was determined in the Clinical Pharmacology Lab, Clinical Trial Center, WCH, SCU. The kidneys were extracted from euthanized mice, immediately fixed with 4% paraformaldehyde, and embedded in paraffin. Furthermore, the samples were cut into 5 µm thick sections. These tissue samples were subjected to hematoxylin-eosin (HE) and […] according to standard protocols with HE reagent (Biosharp, Cat#BL702B, BL703B) and Masson reagent (Servicebio, Cat#G1006-100ML). The pathological changes were detected through optical microscopy, and the tubulointerstitial injury score was determined as previously reported."}, "[1]": {"system": "recombinant human NEK7 protein", "test": "BLI analysis of recombinant human NEK7 and P-II", "conditions": "Supplementary Fig. 4e, peptide immobilized on AR2G biosensors 400 μg/ml, recombinant human NEK7 39.0625 to 1250 nM, 1:1 binding model", "description": "Bio-Layer Interferometry (BLI) analysis\nThe peptide (Bootech BioScience &Technology) was immobilized separately on Octet® AR2G Biosensors (Sartorius, Lot#2308017311) at a concentration of 400 μg/ml for 500 s. Association and dissociation curves were obtained through the addition of a dilution series of recombinant human NEK7 protein (SinoBiological, CAT#11534-H20B) (39.0625 to 1250 nM) for 120 s followed by dissociation for 120 s. Interference patterns for association or dissociation were measured in real-time to generate a response profile on the Octet® System Octet 96 Red instrument (Sartorius). A 1:1 binding model was used to evaluate the Kinetic parameter."}}, "note": "Residues, ends and D or L forms follow the SMILES beside them.", "data": [{"smiles": "CSCC[C@H](NC(=O)[C@H](Cc1ccc(O)cc1)NC(=O)[C@H](CCC(N)=O)NC(=O)[C@H](CS)NC(=O)[C@H](C)NC(=O)[C@H](C)NC(=O)[C@H](Cc1c[nH]cn1)NC(=O)[C@H](CCSC)NC(=O)[C@H](CC(C)C)NC(=O)[C@H](CS)NC(=O)[C@H](CC(N)=O)NC(=O)CNC(=O)[C@H](CC(=O)O)NC(=O)CNC(=O)[C@H](CC(N)=O)NC(=O)[C@@H](NC(=O)[C@H](CCCCN)NC(=O)[C@H](CC(C)C)NC(=O)[C@H](C)NC(=O)[C@@H](NC(=O)[C@H](CC(C)C)NC(=O)[C@@H](N)CCCCN)C(C)C)[C@@H](C)O)C(=O)N[C@@H](Cc1c[nH]c2ccccc12)C(=O)NCC(=O)N[C@H](C(=O)N[C@@H](CCC(N)=O)C(=O)N[C@@H](CC(=O)O)C(=O)N[C@H](C(=O)N[C@@H](CC(=O)O)C(=O)O)[C@@H](C)O)C(C)C", "note": "[P-II] (H-KLVALKTNGDGNCLMHAACQYMWGVQDTD-OH; N-terminus and C-terminus assumed)", "values": [{"measurement": "serum creatinine (in words)", "setting": "AKI mice", "result": "alleviated the serum creatinine"}, {"measurement": "affinity for NEK7 (in words)", "setting": "[1]", "result": "high affinity to NEK7 protein"}]}]}
